Results published in publication PMC9133015 (Nature Communications, 2022).
Values joined by “and” are separate entries in the source; they are usually repeats but may differ in a detail not shown here. Identical values can stand only once.

Assays:
[1] = biological target: T1, panel of 370 protein kinases (Homo sapiens, UniProt P07948); assay: Kinase inhibitor specificity profiling (Reaction Biology Corporation); format: biochemical; settings: 2 h, kinase LYN; read-out: % Enzyme Activity (relative to DMSO controls)
T1 construct: purchased Reaction Biology Corporation (assay service)

[2] = biological target: T2, panel of 370 protein kinases (Homo sapiens, UniProt O00238); assay: as above; format: biochemical; settings: 2 h, kinase ALK6/BMPR1B; read-out: % Enzyme Activity (relative to DMSO controls)
T2 construct: purchased Reaction Biology Corporation (assay service)

[3] = biological target: T3, panel of 370 protein kinases (Homo sapiens, UniProt Q13557); assay: as above; format: biochemical; settings: 2 h, kinase CAMK2d; read-out: % Enzyme Activity (relative to DMSO controls)
T3 construct: purchased Reaction Biology Corporation (assay service)

[4] = biological target: T4, panel of 370 protein kinases (Homo sapiens, UniProt P29320); assay: as above; format: biochemical; settings: 2 h, kinase EPHA3; read-out: % Enzyme Activity (relative to DMSO controls)
T4 construct: purchased Reaction Biology Corporation (assay service)

[5] = biological target: T5, panel of 370 protein kinases (Homo sapiens, UniProt Q86YV6); assay: as above; format: biochemical; settings: 2 h, kinase MYLK4; read-out: % Enzyme Activity (relative to DMSO controls)
T5 construct: purchased Reaction Biology Corporation (assay service)

[6] = biological target: T6, panel of 370 protein kinases (Homo sapiens, UniProt Q9NR20); assay: as above; format: biochemical; settings: 2 h, read-out: % Enzyme Activity (relative to DMSO controls), kinase DYRK4
T6 construct: purchased Reaction Biology Corporation (assay service)

[7] = biological target: T7, panel of 370 protein kinases (Homo sapiens, UniProt Q9HBH9); assay: as above; format: biochemical; settings: 2 h, kinase MNK2; read-out: % Enzyme Activity (relative to DMSO controls)
T7 construct: purchased Reaction Biology Corporation (assay service)

DU145 cells [8] = assay: Real-time quantitative PCR (RRS1, GRWD1, CCNG2, YPEL3 mRNA); format: cell-based, human
22Rv1 cells = assay: as above; format: cell-based, human; settings: replicates
DU145 cells [9] = assay: Transcriptome-wide RNA-sequencing; format: cell-based, human; settings: DU145, YK-2-69 3 µM 48 h vs DMSO

T4 sequence (P29320 21-983): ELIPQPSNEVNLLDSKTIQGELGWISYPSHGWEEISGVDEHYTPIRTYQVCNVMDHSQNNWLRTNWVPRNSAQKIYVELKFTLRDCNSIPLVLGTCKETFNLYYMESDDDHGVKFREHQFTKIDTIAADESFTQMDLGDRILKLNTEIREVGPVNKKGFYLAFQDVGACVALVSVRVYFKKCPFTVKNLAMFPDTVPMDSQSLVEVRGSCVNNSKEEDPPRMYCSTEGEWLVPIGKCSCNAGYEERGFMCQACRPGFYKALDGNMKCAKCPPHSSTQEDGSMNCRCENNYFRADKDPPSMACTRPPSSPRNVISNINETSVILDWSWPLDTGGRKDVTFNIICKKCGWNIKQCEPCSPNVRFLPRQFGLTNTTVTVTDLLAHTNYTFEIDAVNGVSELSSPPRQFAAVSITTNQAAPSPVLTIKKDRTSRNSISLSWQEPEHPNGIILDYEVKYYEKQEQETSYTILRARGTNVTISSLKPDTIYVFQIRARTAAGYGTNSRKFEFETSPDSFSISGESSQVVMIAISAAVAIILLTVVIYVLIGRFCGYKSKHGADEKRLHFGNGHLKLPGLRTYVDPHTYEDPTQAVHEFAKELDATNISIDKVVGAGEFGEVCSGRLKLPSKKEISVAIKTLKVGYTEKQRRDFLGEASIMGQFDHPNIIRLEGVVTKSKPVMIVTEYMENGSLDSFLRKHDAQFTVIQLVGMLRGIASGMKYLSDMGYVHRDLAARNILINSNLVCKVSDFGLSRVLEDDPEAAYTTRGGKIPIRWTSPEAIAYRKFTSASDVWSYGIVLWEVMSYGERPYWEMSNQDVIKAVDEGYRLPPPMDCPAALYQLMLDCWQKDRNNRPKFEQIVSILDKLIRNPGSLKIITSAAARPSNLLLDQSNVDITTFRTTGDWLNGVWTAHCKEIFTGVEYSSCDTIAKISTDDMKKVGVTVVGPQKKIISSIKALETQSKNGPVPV
T6 sequence (Q9NR20 whole entry): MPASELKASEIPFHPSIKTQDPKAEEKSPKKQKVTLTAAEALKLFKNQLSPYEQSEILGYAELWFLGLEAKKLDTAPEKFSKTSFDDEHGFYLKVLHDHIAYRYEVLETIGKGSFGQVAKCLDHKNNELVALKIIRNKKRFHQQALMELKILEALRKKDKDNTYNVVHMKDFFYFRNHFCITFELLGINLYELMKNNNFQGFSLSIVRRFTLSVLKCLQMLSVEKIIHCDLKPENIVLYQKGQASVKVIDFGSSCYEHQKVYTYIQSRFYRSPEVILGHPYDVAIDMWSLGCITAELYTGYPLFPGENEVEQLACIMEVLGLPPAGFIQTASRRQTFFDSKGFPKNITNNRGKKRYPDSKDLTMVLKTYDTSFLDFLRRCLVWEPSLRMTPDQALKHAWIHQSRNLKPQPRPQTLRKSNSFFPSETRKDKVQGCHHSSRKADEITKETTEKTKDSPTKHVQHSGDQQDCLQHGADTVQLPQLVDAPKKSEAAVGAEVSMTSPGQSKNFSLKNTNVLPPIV
T2 sequence (O00238 14-502): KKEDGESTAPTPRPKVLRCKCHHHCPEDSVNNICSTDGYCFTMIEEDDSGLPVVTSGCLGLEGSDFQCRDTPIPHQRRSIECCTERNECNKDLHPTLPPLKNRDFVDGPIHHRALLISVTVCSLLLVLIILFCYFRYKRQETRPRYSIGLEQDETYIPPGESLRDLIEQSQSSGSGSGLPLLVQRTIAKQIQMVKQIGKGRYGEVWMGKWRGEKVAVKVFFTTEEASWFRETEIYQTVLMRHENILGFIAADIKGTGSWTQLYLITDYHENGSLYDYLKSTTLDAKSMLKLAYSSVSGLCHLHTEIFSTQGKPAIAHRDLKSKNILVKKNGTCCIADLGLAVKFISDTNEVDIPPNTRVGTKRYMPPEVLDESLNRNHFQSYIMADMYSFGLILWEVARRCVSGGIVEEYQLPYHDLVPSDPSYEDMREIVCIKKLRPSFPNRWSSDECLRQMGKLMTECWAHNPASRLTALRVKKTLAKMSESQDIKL
T7 sequence (Q9HBH9 whole entry): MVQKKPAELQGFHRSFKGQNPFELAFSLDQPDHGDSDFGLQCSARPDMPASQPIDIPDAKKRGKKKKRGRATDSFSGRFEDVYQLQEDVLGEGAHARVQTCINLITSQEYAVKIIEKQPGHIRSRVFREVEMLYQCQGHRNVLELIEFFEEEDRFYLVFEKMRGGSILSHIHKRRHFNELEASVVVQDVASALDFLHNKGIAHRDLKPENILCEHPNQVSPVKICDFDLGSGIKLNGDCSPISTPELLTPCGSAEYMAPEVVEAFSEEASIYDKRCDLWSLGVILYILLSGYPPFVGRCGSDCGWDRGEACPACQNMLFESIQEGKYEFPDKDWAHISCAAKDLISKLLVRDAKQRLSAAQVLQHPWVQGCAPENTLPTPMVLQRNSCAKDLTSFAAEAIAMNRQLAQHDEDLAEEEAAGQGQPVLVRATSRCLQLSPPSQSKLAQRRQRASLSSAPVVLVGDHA
T1 sequence (P07948 whole entry): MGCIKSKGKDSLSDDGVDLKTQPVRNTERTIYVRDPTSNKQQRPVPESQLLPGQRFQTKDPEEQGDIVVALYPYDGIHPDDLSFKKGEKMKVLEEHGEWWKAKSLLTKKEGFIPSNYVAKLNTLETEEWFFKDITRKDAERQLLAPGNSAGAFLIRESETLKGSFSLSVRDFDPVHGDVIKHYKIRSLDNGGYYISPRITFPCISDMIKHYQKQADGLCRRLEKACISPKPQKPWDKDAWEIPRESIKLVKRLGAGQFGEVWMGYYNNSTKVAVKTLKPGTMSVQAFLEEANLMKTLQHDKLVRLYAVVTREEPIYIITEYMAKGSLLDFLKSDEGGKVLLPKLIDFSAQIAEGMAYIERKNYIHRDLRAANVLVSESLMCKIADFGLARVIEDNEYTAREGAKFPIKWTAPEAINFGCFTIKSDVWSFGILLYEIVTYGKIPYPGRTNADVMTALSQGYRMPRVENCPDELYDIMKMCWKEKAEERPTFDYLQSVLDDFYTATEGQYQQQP
T5 sequence (Q86YV6 whole entry): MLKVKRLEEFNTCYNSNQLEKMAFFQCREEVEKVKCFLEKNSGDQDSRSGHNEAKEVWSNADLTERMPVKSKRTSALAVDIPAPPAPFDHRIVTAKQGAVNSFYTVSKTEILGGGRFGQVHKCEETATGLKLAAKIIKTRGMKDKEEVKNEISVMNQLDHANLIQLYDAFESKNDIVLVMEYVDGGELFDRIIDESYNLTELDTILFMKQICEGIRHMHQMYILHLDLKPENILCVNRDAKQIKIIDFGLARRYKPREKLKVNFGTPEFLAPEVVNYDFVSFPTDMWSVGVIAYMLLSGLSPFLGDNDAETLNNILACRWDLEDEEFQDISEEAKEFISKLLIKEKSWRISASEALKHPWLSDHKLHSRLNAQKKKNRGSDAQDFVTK
T3 sequence (Q13557 whole entry): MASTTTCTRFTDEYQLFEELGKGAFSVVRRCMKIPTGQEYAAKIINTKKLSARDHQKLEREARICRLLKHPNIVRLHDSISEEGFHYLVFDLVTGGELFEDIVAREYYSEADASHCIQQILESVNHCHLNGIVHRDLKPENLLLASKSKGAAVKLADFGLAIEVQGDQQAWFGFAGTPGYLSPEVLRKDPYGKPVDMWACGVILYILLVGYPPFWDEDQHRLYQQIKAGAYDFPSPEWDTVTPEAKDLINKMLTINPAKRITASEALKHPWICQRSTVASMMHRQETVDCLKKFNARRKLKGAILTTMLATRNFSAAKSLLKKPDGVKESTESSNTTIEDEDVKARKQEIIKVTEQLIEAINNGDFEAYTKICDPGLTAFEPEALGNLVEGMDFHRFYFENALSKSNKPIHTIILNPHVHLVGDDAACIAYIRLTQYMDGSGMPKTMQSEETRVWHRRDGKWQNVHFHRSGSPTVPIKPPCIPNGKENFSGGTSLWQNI

## CCN1CCN(C(=O)c2ccc(Nc3ncc(F)c(-c4ccc5nc(N(C)C)sc5c4)n3)nc2)CC1 [YK-2-69]
[1]
  remaining activity at 1 µM: 93.9%
[2]
  remaining activity at 1 µM: 90.5%
[3]
  remaining activity at 1 µM: 92.8%
[4]
  remaining activity at 1 µM: 95.2%
[5]
  remaining activity at 1 µM: 44.6%
[6]
  remaining activity at 1 µM: 50%
[7]
  remaining activity at 1 µM: 89.2%
DU145 cells [8]; DU145, 2 μM
  Relative mRNA levels CCNG2: 1.61 and 1.59 and 1.77
  Relative mRNA levels GRWD1: 0.86 and 0.88 and 0.9
  Relative mRNA levels RRS1: 0.88 and 0.78 and 0.86
  Relative mRNA levels YPEL3: 1.25 and 1.23 and 1.29
DU145 cells [8]; DU145, 4 μM
  Relative mRNA levels CCNG2: 1.7 and 1.66 and 1.89
  Relative mRNA levels GRWD1: 0.79 and 0.71
  Relative mRNA levels RRS1: 0.68 and 0.7 and 0.71
  Relative mRNA levels YPEL3: 2.68 and 2.63 and 2.74
DU145 cells [8]; DU145, 8 μM
  Relative mRNA levels CCNG2: 1.91 and 1.83 and 2.04
  Relative mRNA levels GRWD1: 0.58 and 0.63 and 0.67
  Relative mRNA levels RRS1: 0.58 and 0.65
  Relative mRNA levels YPEL3: 3.48 and 3.53 and 3.64
22Rv1 cells; 22Rv1, 1 μM
  Relative mRNA levels CCNG2: 2.36 and 2.34 and 2.68
  Relative mRNA levels GRWD1: 0.83 and 0.9 and 0.89
  Relative mRNA levels RRS1: 0.87 and 0.83 and 0.82
  Relative mRNA levels YPEL3: 1.18 and 1.26 and 1.19
22Rv1 cells; 22Rv1, 2 μM
  Relative mRNA levels CCNG2: 4.36 and 5.2 and 4.62
  Relative mRNA levels GRWD1: 0.79 and 0.78 and 0.7
  Relative mRNA levels RRS1: 0.73 and 0.77 and 0.71
  Relative mRNA levels YPEL3: 1.68 and 1.63 and 1.74
22Rv1 cells; 22Rv1, 4 μM
  Relative mRNA levels CCNG2: 8.94 and 9.9 and 8.92
  Relative mRNA levels GRWD1: 0.69 and 0.68 and 0.62
  Relative mRNA levels RRS1: 0.63 and 0.68
  Relative mRNA levels YPEL3: 2.48 and 2.53 and 2.64
DU145 cells [9]
  log2(fc) KLF6 (ENSG00000067082): -1
  log2(fc) MT-ND6 (ENSG00000198695): 1.099
  log2(fc) PLK2 (ENSG00000145632): -1.04
  log2(fc) TAGLN (ENSG00000149591): -2.064
